≈ marks a conversion by molar mass, not a printed value.
Assays:
Entamoeba histolytica = experiment: […] activity against Entamoeba histolytica; assay type: functional
Giardia intestinalis = experiment: Antigiardial activity against Giardia intestinalis; assay type: functional; details: Giardia duodenalis

## CC[C@H]1CN2CCc3cc(OC)c(OC)cc3[C@@H]2C[C@@H]1C[C@H]1NCCc2cc(OC)c(OC)cc21 [EMETINE]
Entamoeba histolytica
  MIC: 2.9 µM (≈ 1.39 µg/mL)

## Cc1ncc([N+](=O)[O-])n1CCO [METRONIDAZOLE]
Giardia intestinalis
  MIC: 1.17 µM (≈ 0.2 µg/mL)

## C=C1C(=O)O[C@@H]2C[C@@H](C)/C=C\C(=O)[C@@](C)(O)[C@H](OC(C)=O)[C@@H](OC(=O)CC(C)C)[C@@H]12 [NEUROLENIN B]
Giardia intestinalis
  MIC: 3.8 µM (≈ 1.61 µg/mL)
Entamoeba histolytica
  MIC: 7.6 µM (≈ 3.21 µg/mL)
